Reference: BindingDB's records for patent US20250368640 (Biofront, 2025)
pIC50: −log10 of the molar value.

Legend:
[1] = target: Mitogen-activated protein kinase kinase kinase kinase 1 (Homo sapiens, UniProt Q92918); assay: HPK1 Enzyme Inhibition Assay
Method: The compound was dissolved in 100% DMSO at the concentration of 10 mM. The HPK1 protein was purchased from Signal Chem (M23-11G-10). 2.5 μL per well of 2×HPK1 protein was added to assay plate containing the test compound, centrifuged at 1500 rpm for 1 minute, and then incubated at 25° C. for 60 minutes. MBP protein was purchased from Signal Chem (M42-51N) and ATP was purchased from Promega (V9102). The two were added 2.5 μL per well mixture of 2×MBP (0.2 ug/ul) and ATP (20 μM), centrifuged at 1500 rpm for 1 minute, then incubated at 25° C. for 60 minutes. Then added 5 μL of ADP-Glo from Promega (V9102) to the assay plate and depleted the unconsumed ATP for 60 minutes. Then centrifuged at 1500 rpm for 1 minute and incubated at 25° C. for 60 minutes. Finally, 10 μL of the kinase assay reagent from Promega (V9102) was added to the assay plate to convert ADP to ATP, centrifuged at 1500 rpm for 1 minute, incubate at 25° C. for 40 minutes. After 40 minutes incubation, the […] was determined.

[2] = target: T1, Aurora kinase A (Homo sapiens, UniProt O14965); assay: Aurora A Enzyme Inhibition Assay
T1 sequence (O14965 whole entry): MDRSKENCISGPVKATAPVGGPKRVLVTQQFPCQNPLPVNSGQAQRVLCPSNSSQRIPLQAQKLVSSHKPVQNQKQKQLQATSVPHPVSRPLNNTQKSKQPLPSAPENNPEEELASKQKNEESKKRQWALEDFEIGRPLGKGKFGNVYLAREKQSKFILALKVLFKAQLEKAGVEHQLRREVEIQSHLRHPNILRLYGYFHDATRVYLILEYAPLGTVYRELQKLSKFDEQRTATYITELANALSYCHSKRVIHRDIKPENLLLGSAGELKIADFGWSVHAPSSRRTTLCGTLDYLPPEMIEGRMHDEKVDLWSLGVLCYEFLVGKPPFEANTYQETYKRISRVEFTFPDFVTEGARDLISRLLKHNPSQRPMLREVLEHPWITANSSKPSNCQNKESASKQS
Method: The compound was dissolved in 100% DMSO at the concentration of 10 mM. The Aurora A protein was purchased from Carna (05-101). 10 μL per well of 2.5×Aurora A protein was added to assay plate containing the test compound, centrifuged at 1000 rpm for 1 minute, and then incubated at 25° C. for 10 minutes. Peptide 21 was purchased from GL Biochem (116370) and ATP was purchased from Promega (V9102). The two were added 15 μL per well mixture of 1.67× peptide 21 (final conc. is 3 μM) and ATP (final conc. is 14.58 μM), centrifuged at 1000 rpm for 1 minute, then incubated at 25° C. for 40 minutes. Then added 30 μL of stop buffer (100 mM HEPES pH7.5, 0.015% Brij-35, 0.2% Coating Reagent 3, 50 mM EDTA) to the assay plate and centrifuged at 1000 rpm for 1 minute. the product was determined.

Chain of Mitogen-activated protein kinase kinase kinase kinase 1 (Q92918 whole entry): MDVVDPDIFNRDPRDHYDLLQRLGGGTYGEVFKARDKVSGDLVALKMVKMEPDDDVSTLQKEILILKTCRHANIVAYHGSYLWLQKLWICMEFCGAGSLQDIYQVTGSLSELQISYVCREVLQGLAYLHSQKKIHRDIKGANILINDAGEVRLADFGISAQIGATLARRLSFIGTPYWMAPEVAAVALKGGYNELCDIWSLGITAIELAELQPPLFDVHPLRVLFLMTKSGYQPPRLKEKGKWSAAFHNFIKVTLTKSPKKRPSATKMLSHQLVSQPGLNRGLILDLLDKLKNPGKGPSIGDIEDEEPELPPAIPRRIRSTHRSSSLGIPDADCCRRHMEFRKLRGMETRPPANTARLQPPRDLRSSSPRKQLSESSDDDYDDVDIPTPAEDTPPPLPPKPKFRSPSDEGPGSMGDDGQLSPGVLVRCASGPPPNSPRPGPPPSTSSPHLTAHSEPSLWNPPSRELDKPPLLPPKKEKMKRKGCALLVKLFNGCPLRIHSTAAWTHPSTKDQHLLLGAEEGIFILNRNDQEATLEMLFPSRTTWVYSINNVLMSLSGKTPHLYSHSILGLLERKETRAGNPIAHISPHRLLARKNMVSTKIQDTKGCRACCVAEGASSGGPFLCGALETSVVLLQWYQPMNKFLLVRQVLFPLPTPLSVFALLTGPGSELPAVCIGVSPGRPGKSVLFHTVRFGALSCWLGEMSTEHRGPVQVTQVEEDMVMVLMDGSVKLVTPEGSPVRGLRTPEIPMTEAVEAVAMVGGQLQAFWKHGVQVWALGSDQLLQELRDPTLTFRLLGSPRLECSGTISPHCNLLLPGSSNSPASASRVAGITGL

Row | Compound | pIC50 [1] | pIC50 [2]
1 | CCc1c[nH]c2ncc(-c3cccc(N4CCCN(CCN5CC(c6ccc7c(c6)CN(C6CCC(=O)NC6=O)C7=O)C5)C4=O)c3)c(Cl)c12 (centres undefined) | 8.96 | 8.00
2 | CCc1c[nH]c2ncc(-c3cccc(N4CCCN(CCN5CC(c6ccc7c(c6)C(=O)N(C6CCC(=O)NC6=O)C7)C5)C4=O)c3)c(Cl)c12 (centres undefined) [US20250368640, Example 1] | 9.12 | 7.84
